Reference: patent US12589099B2 (priority 2021, dated 2026)

How the values were obtained:
[1] = test system: moderate traumatic brain injury (TBI) induced by controlled cortical impact (CCI); experiment: Right forelimb adhesive removal test after TBI; assay type: in vivo, male Wistar rats
Description: (§1) FIG. 2: The figure illustrates functional tests that are carried out on healthy (sham surgery) no treatment, vehicle treated and ALPHA-1062 treated rats to assess sensorimotor and cognitive function after TBI. Sensimotor function tests. a) The figure depicts tests to assess the modified neurological severity score (mNSS). […] The animal is required to balance over a grid and the frequency of steps missing the grid are counted. This test assesses the functionality of the injured parietal cortex of the rat's brain. c) The adhesive removal test consists of applying adhesive tape on each forepaw of the animal and measuring the time-to-contact and the time-to-remove them. This behavior requires correct paw and mouth sensitivity (time-to-contact) and correct dexterity (time-to-remove). Cognitive function tests: a) This picture illustrates the Morris water maze that comprises that a rat is placed in a large circular pool (picture on the left) and is required to find an invisible platform that allows it to escape the water by using various visuo-spatial cues. This test is used to study spatial learning and memory and assesses hippocampal and select cortical brain region function. Usually, the path of the rat through the pool is tracked (picture on the right) and the time spend in the proximity of the platform as well as the time needed until the platform is found by the rat are measured. b) For the new/novel object recognition (NOR) test, after a habituation time in the test space (picture on far left) rats are given the opportunity to explore two identical objects (A) for a predetermined period of time (picture in the middle). After a delay, the animals are then presented with two objects to explore, one of which is the same as in the first exploration trial (A), the other a new object (B) (picture on the right). Depending on the length of the delay between the two trials or depending on the extend of cortical damage, the rats will either explore the novel object for a greater time period, indicating memory for the familiar object, or will explore the novel and familiar objects for the same amount of time, indicating a lack of recall or loss of memory for the familiar object presented during the initial trial.
Young adult (2-3 months) male Wistar rats were subjected to a moderate traumatic brain injury (TBI) induced by controlled cortical impact (CCI). […]
In the adhesive removal test, an adhesive tape is applied to the right forepaw of an animal. Both the time-to-contact the adhesive (sensory perception), as well as the time-to-remove the adhesive (locomotor skill) are assessed by this test.

[2] = test system: moderate traumatic brain injury (TBI) induced by controlled cortical impact (CCI); experiment: Foot-fault test (right forelimb and hindlimb) after TBI; assay type: in vivo, male Wistar rats
Description: as §1
Young adult (2-3 months) male Wistar rats were subjected to a moderate traumatic brain injury (TBI) induced by controlled cortical impact (CCI). Animal models of TBI including the CCI model and functional tests have been described in detail in peer reviewed publications (Xiong et al., 2013, Nat Rev Neurosci.; Zhang et al., 2016, J Neurosurg.; Zhang et al., 2016, Neurochem Int.; Zhang et al., 2021, J Neurotrauma). Injury consisted of a single impact at 4.0 m/sec, 2.5 mm deformation to the left parietal cortex. In addition, a group of animals was left healthy/not injured to serve as a healthy control.
The animals were divided into 3 groups: • 1) TBI+Vehicle (purified water, n=10) • 2) TBI+ALPHA-1062 (4.5 mg/kg) (n=10) • 3) Healthy/not injured and not treated (Sham surgery) (n=10)
The substance used in this study was ALPHA-1062 at 4.5 mg/kg. As control treatment (vehicle) purified water was administered intranasally (IN). The ALPHA-1062 and the control treatment were initiated 2 hours after injury and continued twice daily (with a 6-hour interval) for 35 consecutive days.
In addition, neurological functional tests were performed by conducting footfault tests and observations to determine the modified neurological severity score (mNSS) at 1, 7, 14, 21, 28, 35 days after TBI (see Table 1). The mNSS is a composite score assessing motor, sensory, balance, and reflex functions. Details of the tests and scoring system can be found in Table 2.
Animals were monitored as they walked across a mesh for the number of times their right forelimb “missed” proper placement, indicating reduced locomotor skill. This is indicative of trauma in the left side of the brain. The results are depicted in FIG. 3. […]

[3] = rats after TBI, compared to healthy sham animals
[4] = rats after TBI, compared to vehicle treatment

With `COc1ccc2c3c1O[C@H]1C[C@@H](OC(=O)c4ccccc4)C=C[C@@]31CCN(C)C2` [ALPHA-1062, (4aS,6R,8aS)-5,6,9,10,11,12-hexahydro-3-methoxy-11-methyl-4aH-[1]benzofuro[3a,3,2-ef][2]benzazepin-6-ol benzoate] as the molecule, how does the “adhesive removal (right forelimb) compared to vehicle” value ([1]; 4.5 mg/kg IN twice daily, from day 7 (D7) on (FIG. 6)) read?
The value was “significantly better”.

And the “adhesive removal (right forelimb) compared to uninjured (sham) animals” value ([1]; 4.5 mg/kg IN twice daily, starting on day 7 (D7), remainder of study)?
The value was “as well as the uninjured (sham) animals”.

And the “Adhesive Removal, performance over SHAM” value [1, 3]?
The value was “equivalent to”.

And the “Adhesive Removal, performance over VEHICLE” value [1, 4]?
Its value is “superior”.

What about the “foot-fault performance compared to uninjured (sham) animals” value ([2]; 4.5 mg/kg IN twice daily, by day 28 (D28)) of the same molecule?
Its value is “statistically indistinguishable”.

What about the “locomotor skill in fore- and hindlimb foot-fault test, acute” value ([2]; 4.5 mg/kg IN twice daily, from the first day of treatment, vs vehicle) of the same molecule?
Its value is “statistically significant preservation of locomotor skill”.

What about the “recovery of locomotor skill in fore- and hindlimb foot-fault test” value ([2]; 4.5 mg/kg IN twice daily, throughout the study, vs vehicle) of the same molecule?
Its value is “persistently statistically significantly improved recovery”.

What about the “right forelimb foot faults during the walk over a mesh” value ([2]; 4.5 mg/kg IN, 2 h post injury, twice daily, 35 days, vs vehicle after TBI (FIG. 3)) of the same molecule?
Its value is “significantly fewer foot faults”.

And the “right hindlimb foot faults during the walk over a mesh” value ([2]; 4.5 mg/kg IN, 2 h post injury, twice daily, 35 days, vs vehicle after TBI (FIG. 4))?
The value was “significantly fewer foot faults”.

What about the “Footfault, performance over SHAM” value [2, 3] of the same molecule?
Its value is “equivalent to”.

And the “Footfault, performance over VEHICLE” value [2, 4]?
Its value is “superior”.
